Test [1] concerns Plasmodium falciparum. Put plainly: Antiplasmodial activity against chloroquine-resistant Plasmodium falciparum W2 by parasite lactate dehydrogenase assay. Format: functional, organism-based.
Test [2] deals with Plasmodium falciparum. The test can be described thus: Resistance modification index, ratio of IC50 for chloroquine in presence of compound to IC50 for chloroquine alone for chloroquine-resistant Plasmodium falciparum W2. Format: functional.
The test system of test [3] is Plasmodium falciparum. The test can be described thus: Resistance modification index, ratio of compound IC10 to chloroquine IC50 in presence of IC10 compound for chloroquine-resistant Plasmodium falciparum W2. The format is functional.
For test [4], the system named is Plasmodium falciparum. The test can be described thus: Inhibition of chloroquine-resistant Plasmodium falciparum […] CRT expressed in Xenopus laevis oocytes assessed as [3H]-chloroquine uptake after 1 to 2 hrs. To be noted: Oocyte.
The test system of test [5] is Plasmodium falciparum. Put plainly: Antiplasmodial activity against chloroquine-resistant Plasmodium falciparum W2 at 15.2 uM by parasite lactate dehydrogenase assay. The format is functional, organism-based.

SMILES strings stand for the structures. Calls of active or inactive are those of the source. The calls are words filed in the database; no cut-off is given here.

Consider `CN(Cc1ccccc1)Cc1ccc(CNC=O)cc1`, for which, in the test with Plasmodium falciparum [1], the IC10 (usually the point of the concentration-response curve where the effect stands at 10%) amounted to 18 µM and the IC50 – broadly, the concentration at which inhibition is half-maximal – was found to be 56 µM. Also, in the test on Plasmodium falciparum [2], the “Ratio IC50” value was found to be 1.13. Also, the “Ratio IC50” value with Plasmodium falciparum [3] was found to be 0.43.

With `COc1ccc(CN(C)Cc2ccccc2CN)cc1`, the IC50 with Plasmodium falciparum [1] was > 233 µM. Also, the “Ratio IC50” value with Plasmodium falciparum [2] is recorded as 0.35.

`CN(Cc1ccc(Cl)cc1)Cc1ccccc1CN` yielded an IC50 in the test on Plasmodium falciparum [1] of 5.7 µM. The “Ratio IC50” value in the test with Plasmodium falciparum [2] is reported as 0.096.

On to `CN(Cc1ccccc1)Cc1ccccc1CN`, for which the values for the IC50 in the test with Plasmodium falciparum [1] and with Plasmodium falciparum [4] (read-out: IC50) were 4.1 µM and 24 µM, respectively. Moreover, the “Ratio IC50” value in the test with Plasmodium falciparum [2] stood at 0.03.

`CN(Cc1ccc(N(C)C)cc1)Cc1cccc(CNC=O)c1`: in the test on Plasmodium falciparum [1], the IC50 worked out at 17 µM. For the same molecule, the “Ratio IC50” value with Plasmodium falciparum [2] came to 0.62; in the test with Plasmodium falciparum [3] it was 1. Further, the inhibition result with Plasmodium falciparum [5] was “inactive”.

For `CN(Cc1ccc(Cl)cc1)Cc1cccc(CN)c1`, the IC50 was 30 µM in the test with Plasmodium falciparum [1] and 101 µM in the test with Plasmodium falciparum [4] (read-out: IC50). The “Ratio IC50” value with Plasmodium falciparum [2] came to 0.31.

The molecule `CN(Cc1ccc(N(C)C)cc1)Cc1ccccc1CN` returned an IC50 with Plasmodium falciparum [1] of 37 µM. Also, in the test with Plasmodium falciparum [2], the “Ratio IC50” value amounted to 0.36.

The molecule `COc1ccc(CN(C)Cc2ccccc2CNC=O)cc1` showed an IC10 with Plasmodium falciparum [1] of 12 µM. The molecule also showed an IC50 in the test on Plasmodium falciparum [1] of 29 µM. Besides, the “Ratio IC50” value with Plasmodium falciparum [2] is given as 1.22; in the test with Plasmodium falciparum [3], 0.32.

`CN(Cc1ccc(Cl)cc1)Cc1ccc(CN)cc1`: the IC50 in the test on Plasmodium falciparum [1] worked out at 63 µM; in the test on Plasmodium falciparum [4] (read-out: IC50) it was 140 µM. Moreover, in the test on Plasmodium falciparum [2], the “Ratio IC50” value is listed as 0.25.

Molecule `CN(Cc1ccccc1)Cc1cccc(CN)c1` showed an IC50 in the test with Plasmodium falciparum [1] of 2.8 µM. For the same molecule, in the test with Plasmodium falciparum [2], the “Ratio IC50” value was 0.08.

In the test on Plasmodium falciparum [1], `CN(Cc1ccc(Cl)cc1)Cc1ccccc1CNC=O` had an IC10 of 12 µM and an IC50 of 119 µM. Besides, in the test with Plasmodium falciparum [2], the “Ratio IC50” value was 1.07. In the test on Plasmodium falciparum [3], the “Ratio IC50” value is listed as 0.34.

In the test with Plasmodium falciparum [1], `CN(Cc1ccc(Cl)cc1)Cc1cccc(CNC=O)c1` displayed a 10% effect concentration (IC10) of 4 µM and an IC50 of 16 µM. For the same molecule, the “Ratio IC50” value in the test with Plasmodium falciparum [3] is listed as 0.51.

With `COc1ccc(CN(C)Cc2ccc(CN)cc2)cc1`, 91 µM corresponded to half-maximal inhibition in the test with Plasmodium falciparum [1] (IC50). In addition, the “Ratio IC50” value in the test on Plasmodium falciparum [2] worked out at 0.33.

On to `COc1ccc(CCN(C)CCCC(C#N)(c2ccc(OC)c(OC)c2)C(C)C)cc1OC` (configuration not stated) [VERAPAMIL], for which the “Ratio IC50” value in the test on Plasmodium falciparum [2] was found to be 0.26. Also, the IC50 in the test with Plasmodium falciparum [4] worked out at 30 µM.

Regarding `CN(Cc1ccccc1)Cc1ccccc1CNC=O`, the IC10 with Plasmodium falciparum [1] was determined as 1.7 µM. In the test on Plasmodium falciparum [1], this molecule registered an IC50 of 11 µM. Also, the entries for the “Ratio IC50” value in the test with Plasmodium falciparum [2] and in the test on Plasmodium falciparum [3] were 0.75 and 0.44, respectively.

In turn, `CN(Cc1ccccc1)Cc1ccc(CN)cc1` returned an IC50 in the test with Plasmodium falciparum [1] of 29 µM. The “Ratio IC50” value in the test on Plasmodium falciparum [2] turned out to be 0.24.

`CN(Cc1ccc(N(C)C)cc1)Cc1cccc(CN)c1` had an IC50 in the test on Plasmodium falciparum [1] of 30 µM. In the test with Plasmodium falciparum [2], the “Ratio IC50” value was 0.24.

In turn, `COc1ccc(CN(C)Cc2cccc(CN)c2)cc1` returned an IC50 in the test with Plasmodium falciparum [1] of 6.8 µM. In the test on Plasmodium falciparum [2], the “Ratio IC50” value came out at 0.25.

As to `COc1ccc(CN(C)Cc2cccc(CNC=O)c2)cc1`, the IC10 with Plasmodium falciparum [1] was determined as 9 µM. The molecule also yielded an IC50 in the test with Plasmodium falciparum [1] of 48 µM. Also, the “Ratio IC50” value is listed as 1.19 in the test on Plasmodium falciparum [2] and 0.51 in the test on Plasmodium falciparum [3].

In the case of `CN(Cc1ccc(Cl)cc1)Cc1ccc(CNC=O)cc1`, in the test on Plasmodium falciparum [1], the 10% effect concentration (IC10) came to 5.4 µM and half-maximal inhibition (IC50) was put at 29 µM. The “Ratio IC50” value in the test on Plasmodium falciparum [2] is 0.9. In addition, the “Ratio IC50” value with Plasmodium falciparum [3] is reported as 0.46.

Consider `CN(Cc1ccc(N(C)C)cc1)Cc1ccccc1CNC=O`, for which, in the test on Plasmodium falciparum [1], the IC10 amounted to 15 µM and the IC50 is 42 µM. In addition, the “Ratio IC50” value in the test with Plasmodium falciparum [2] is reported as 1. Moreover, the “Ratio IC50” value in the test with Plasmodium falciparum [3] is 0.49.

On to `CN(Cc1ccc(CN)cc1)Cc1ccc(N(C)C)cc1`, for which the IC50 with Plasmodium falciparum [1] is 11.7 µM. In addition, the “Ratio IC50” value with Plasmodium falciparum [2] amounted to 0.21.

Regarding `COc1ccc(CN(C)Cc2ccc(CNC=O)cc2)cc1`, the IC10 in the test on Plasmodium falciparum [1] is 16 µM. The molecule further came in with an IC50 with Plasmodium falciparum [1] of 37 µM. Further, the “Ratio IC50” value in the test on Plasmodium falciparum [2] came out at 1.22; with Plasmodium falciparum [3], 0.46.

With `CN(Cc1ccc(CNC=O)cc1)Cc1ccc(N(C)C)cc1`, in the test on Plasmodium falciparum [1], the 10% effect level (IC10) was put at 15.2 µM. In addition, the IC50 was found to be 33 µM in the test on Plasmodium falciparum [1] and 657 µM with Plasmodium falciparum [4] (read-out: IC50). The “Ratio IC50” value with Plasmodium falciparum [2] is on record as 1.36; in the test on Plasmodium falciparum [3], 0.46.

For the molecule `CN(Cc1ccccc1)Cc1cccc(CNC=O)c1`, in the test on Plasmodium falciparum [1], the IC10 was 9.7 µM and 21 µM corresponded to half-maximal inhibition (IC50). The “Ratio IC50” value with Plasmodium falciparum [2] is given as 0.84. Moreover, the “Ratio IC50” value in the test on Plasmodium falciparum [3] stood at 0.29.

Source of the values: ChEMBL document CHEMBL1770111, “A series of structurally simple chloroquine chemosensitizing dibemethin derivatives that inhibit chloroquine transport by PfCRT” (Eur J Med Chem, 2011).
